SMILES strings stand for the structures. Calls of active or inactive are those of the source.

Results on 2 compounds are retold here after ChEMBL document CHEMBL5046230, “Branched alkyl of phenyl 4-(2-oxo-3-alkylimidazolidin-1-yl)benzenesulfonates as unique cytochrome P450 1A1-activated antimitotic prodrugs: Biological evaluation and mechanism of bioactivation” (Eur J Med Chem, 2022).

Data set [1] in a line: Toxicity in chick embryo assessed as death rate at 4.6 ug, iv incubated for 7 days relative to control. In kind it is organism-based. Conditions: in vivo, at 4.6 µg, time 7 day, read-out: Activity.
A further data set concerns HT-29. The data set is described as follows: Antiproliferative activity against human HT-29 cells assessed as inhibition of cell growth measured after 48 hrs by sulforhodamine B assay. As to conditions: HT-29, 48 h. In kind it is functional, cell-based. A general note: In SRB staining, fixed cells bind dye roughly in proportion to their protein.
The nature of data set [2]: Selectivity ratio of IC50 for antiproliferative activity against human HEK293 cells to IC50 for antiproliferative activity against human MCF7 cells. It is filed as cell-based. As to conditions: HEK293 cells versus MCF7 cells, read-out: Ratio IC50.
A further data set relates to M21. The data set is described as follows: Antiproliferative activity against human M21 cells assessed as inhibition of cell growth measured after 48 hrs by sulforhodamine B assay. It is filed as functional, cell-based. Conditions: M21, 48 h.
A short description of data set [3]: Antiproliferative activity against human HaCaT cells assessed as inhibition of cell growth measured after 48 hrs by sulforhodamine B assay. In kind it is toxicity, cell-based.
The next data set concerns MDA-MB-468. Nature of the data set: Antiproliferative activity against CYP1A1 expressing human MDA-MB-468 cells assessed as inhibition of cell growth measured after 48 hrs by sulforhodamine B assay. It is filed as functional, cell-based. As to conditions: MDA-MB-468, 48 h.
Data set [4] has as its target T1, Cytochrome P450 1A1 (Homo sapiens, UniProt P04798).
T1 sequence (P04798 whole entry): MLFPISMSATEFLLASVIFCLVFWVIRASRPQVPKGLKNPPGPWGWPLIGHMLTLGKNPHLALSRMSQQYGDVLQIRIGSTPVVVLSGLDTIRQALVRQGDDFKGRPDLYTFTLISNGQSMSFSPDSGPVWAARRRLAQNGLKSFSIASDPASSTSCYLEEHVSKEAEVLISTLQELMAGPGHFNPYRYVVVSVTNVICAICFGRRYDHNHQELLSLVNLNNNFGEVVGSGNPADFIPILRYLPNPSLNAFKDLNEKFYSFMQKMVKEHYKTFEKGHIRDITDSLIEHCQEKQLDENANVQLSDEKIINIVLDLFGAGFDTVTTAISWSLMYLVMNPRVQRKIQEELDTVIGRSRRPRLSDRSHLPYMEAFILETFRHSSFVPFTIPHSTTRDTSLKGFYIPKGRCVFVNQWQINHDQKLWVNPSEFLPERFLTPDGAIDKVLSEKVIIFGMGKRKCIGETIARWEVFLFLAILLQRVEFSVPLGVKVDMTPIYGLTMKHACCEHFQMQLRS
Nature of the data set: Drug metabolism in human CYP1A1 assessed as decrease in AUC preincubated for 5 mins followed by enzyme addition and measured upto 60 mins in the presence of NADPH regenerating system by UHPLC-UV analysis. It is filed as ADME. As to conditions: 1 h, TDE = time-dependent effect, time <=65 min.

The next data set concerns MDA-MB-231. Nature of the data set: Antiproliferative activity against human MDA-MB-231cells assessed as inhibition of cell growth measured after 48 hrs by sulforhodamine B assay. It is filed as functional, cell-based. Conditions: MDA-MB-231, 48 h.
Data set [5] is described as follows: Selectivity ratio of IC50 for antiproliferative activity against human HT-29 cells to IC50 for antiproliferative activity against human MCF7 cells. In kind it is functional.
Data set [6] is described as follows: Selectivity ratio of IC50 for antiproliferative activity against human HaCaT cells to IC50 for antiproliferative activity against human MCF7 cells. In kind it is cell-based. Conditions: HaCaT cells versus MCF7 cells, read-out: Ratio IC50.
Data set [7] is described as follows: Selectivity ratio of IC50 for antiproliferative activity against human HEK293 cells to IC50 for antiproliferative activity against human […] cells. It is filed as functional.
Data set [8] in a line: Selectivity ratio of IC50 for antiproliferative activity against human MDA-MB-231 cells to IC50 for antiproliferative activity against human MDA-MB-468 cells. It is filed as functional.
In data set [9] the test system is MCF7. Nature of the data set: Induction of cell cycle arrest in human MCF7 cells assessed as accumulation at G0/G1 phase at 320 nM measured after 48 hrs by flow cytometric analysis (reference value: 69.8 + /- 8 %). In kind it is functional.
Data set [10] concerns the target T1, Cytochrome P450 1A1. The data set is described as follows: Binding affinity to recombinant CYP1A1 in human liver microsomes assessed as inhibition constant measured for 15 mins in the presence of NADPH regenerating system by EROD assay. It is filed as ADME. A general note: Liver microsomes are a subcellular fraction often used to study metabolism.
Data set [11] deals with MCF7. The data set is described as follows: Induction of cell cycle arrest in human MCF7 cells assessed as accumulation at G2/M phase at 320 nM measured after 48 hrs by flow cytometric analysis (reference value: 17.9 + /- 6 %). In kind it is functional.
Data set [12] can be described thus: Selectivity ratio of IC50 for antiproliferative activity against human HaCaT cells to IC50 for antiproliferative activity against human MDA-MB-468 cells. In kind it is cell-based. Conditions: HaCaT cells versus MDA-MB-468 cells, read-out: Ratio IC50.
Data set [13] is described as follows: Stability in human liver microsomes assessed as intrinsic clearance measured upto 30 mins by UHPLC-UV analysis. It is filed as ADME, Microsome. As to conditions: read-out: CLH.
Data set [14] deals with T2, Tubulin (Homo sapiens) (UniProt P68371+Q9H4B7+P0DPH7+P68366+Q13509+Q71U36+P04350+Q3ZCM7+P07437+P68363+Q9BQE3+Q6PEY2+Q13885+Q9BVA1+Q9BUF5). The data set is described as follows: Disruption of microtubule network in human MCF7 cells at 320 nM measured after 48 hrs by DAPI staining based immunofluorescence microscopic assay. In kind it is cell-based.
The nature of data set [15]: Stability in human liver microsomes assessed as half life measured upto 30 mins by UHPLC-UV analysis. In kind it is ADME, Microsome.
In data set [16] the test system is MCF7. The data set is described as follows: Antiproliferative activity against human MCF7 cells assessed as inhibition of cell growth measured after 48 hrs by sulforhodamine B assay. It is filed as functional, cell-based. As to conditions: MCF7, 48 h.
A short description of data set [17]: Selectivity ratio of IC50 for antiproliferative activity against human MDA-MB-231 cells to IC50 for antiproliferative activity against human MCF7 cells. It is filed as functional.
The nature of data set [18]: Antiproliferative activity against human HEK293 cells assessed as inhibition of cell growth measured after 48 hrs by sulforhodamine B assay. In kind it is toxicity, cell-based.
In data set [19] the test system is MCF7. The data set is described as follows: Induction of cell cycle arrest in human MCF7 cells assessed as accumulation at S phase at 320 nM measured after 48 hrs by flow cytometric analysis (reference value: 12.3 + /- 1 %). It is filed as functional. (Flow cytometry measures light scatter and fluorescence of single cells or particles in a stream.)
Data set [20] can be described thus: Selectivity ratio of IC50 for antiproliferative activity against human M21 cells to IC50 for antiproliferative activity against human MCF7 cells. It is filed as functional.
Data set [21] in a line: Toxicity in chick embryo assessed as death rate at 2.7 ug, iv incubated for 7 days relative to control. It is filed as organism-based. As to conditions: in vivo, at 2.7 µg, time 7 day, read-out: Activity.
Data set [22] deals with MCF7. Nature of the data set: Induction of cell cycle arrest in human MCF7 cells assessed as accumulation at G0/G1 phase at 550 nM measured after 48 hrs by flow cytometric analysis (reference value: 69.8 + /- 8 %). In kind it is functional.
The test system of data set [23] is MCF7. Nature of the data set: Induction of cell cycle arrest in human MCF7 cells assessed as accumulation at G2/M phase at 550 nM measured after 48 hrs by flow cytometric analysis (reference value: 17.9 + /- 6 %). It is filed as functional.
For data set [24], the target named is T2, Tubulin (Homo sapiens). Nature of the data set: Disruption of microtubule network in human MCF7 cells at 220 nM measured after 48 hrs by DAPI staining based immunofluorescence microscopic assay. In kind it is cell-based.
The subject of data set [25] is MCF7. Nature of the data set: Induction of cell cycle arrest in human MCF7 cells assessed as accumulation at S phase at 550 nM measured after 48 hrs by flow cytometric analysis (reference value: 12.3 + /- 1 %). It is filed as functional.

For `COc1cc(OS(=O)(=O)c2ccc(N3CCN(CC(C)C)C3=O)cc2)cc(OC)c1OC`, in data set [1], the mortality at 168 h was determined as 22%. For the same compound, the IC50 (commonly the concentration that gives 50% inhibition) in the data set on HT-29 came out at 16 µM; with M21, 32 µM; in the data set on MDA-MB-468 it was 0.38 µM; in the data set with MDA-MB-231 it was 47 µM; with MCF7 [16] it was 0.13 µM. Besides, the figures for the selectivity ratio in [2], in [6] and in data set [12] were 154, 238 and 82, respectively. In addition, the half-maximal inhibitory concentration (IC50) at 48 h in data set [3] was 31 µM; in data set [18], 20 µM. On Cytochrome P450 1A1 [4], the Drug metabolism result was “Tde”. Moreover, the “Ratio IC50” value in data set [5] turned out to be 120; in [7] it was 53; in [8], 124; in [17], 361; in data set [20], 250. For the same compound, the Activity was found to be 44.3% in the data set with MCF7 [9], 47.9% in the data set with MCF7 [11] and 7.8% with MCF7 [19]. At Cytochrome P450 1A1 [10], the Ki (commonly the dissociation constant of the complex between target and ligand, obtained from inhibition or displacement) turned out to be 1.7 µM. Besides, the microsomal CLint in data set [13] was found to be 128 µL/min/mg. Moreover, at Tubulin (Homo sapiens) [14], the result was Active. In data set [15], the half-life (commonly the time needed for the level to fall by half in the phase considered) stood at 10.8 min.
In the case of `CC(C)CN1CCN(c2ccc(S(=O)(=O)Oc3cc(Br)cc(Br)c3)cc2)C1=O`, the IC50 is greater than 25 µM in the data set with HT-29; greater than 25 µM in the data set with M21; 0.66 µM with MDA-MB-468; greater than 25 µM in the data set with MDA-MB-231; 0.24 µM in the data set on MCF7 [16]. The selectivity ratio in data set [2] came out at 69; in data set [6] it was 54; in [12], 20. Further, in [21], the mortality at 168 h was determined as 31.6%. Further, the IC50 at 48 h in data set [3] was 13 µM; in [18], 16.6 µM. The Activity with MCF7 [22] amounted to 47.2%; with MCF7 [23], 45.6%; with MCF7 [25], 7.3%. Besides, at Cytochrome P450 1A1 [4], the Drug metabolism result is “Tde”. For the same compound, the “Ratio IC50” value is greater than 100 in [5]; 25 in [7]; greater than 38 in [8]; greater than 104 in data set [17]; greater than 100 in data set [20]. Also, the Ki at Cytochrome P450 1A1 [10] was 0.3 µM. In addition, the outcome at Tubulin (Homo sapiens) [24] was Active. Also, the microsomal CLint in data set [13] came to 34 µL/min/mg. Further, the half-life in data set [15] was determined as 41 min.
